Experiments:
Cyclooxygenase-2 (COX-2) [1] = biological target: T1, Cyclooxygenase-2 (COX-2) (Ovis aries, UniProt P79208); test: purified enzyme, product formation and regioisomers by RP-HPLC-MS/MS; format: biochemical
T1 sequence (P79208 17-603): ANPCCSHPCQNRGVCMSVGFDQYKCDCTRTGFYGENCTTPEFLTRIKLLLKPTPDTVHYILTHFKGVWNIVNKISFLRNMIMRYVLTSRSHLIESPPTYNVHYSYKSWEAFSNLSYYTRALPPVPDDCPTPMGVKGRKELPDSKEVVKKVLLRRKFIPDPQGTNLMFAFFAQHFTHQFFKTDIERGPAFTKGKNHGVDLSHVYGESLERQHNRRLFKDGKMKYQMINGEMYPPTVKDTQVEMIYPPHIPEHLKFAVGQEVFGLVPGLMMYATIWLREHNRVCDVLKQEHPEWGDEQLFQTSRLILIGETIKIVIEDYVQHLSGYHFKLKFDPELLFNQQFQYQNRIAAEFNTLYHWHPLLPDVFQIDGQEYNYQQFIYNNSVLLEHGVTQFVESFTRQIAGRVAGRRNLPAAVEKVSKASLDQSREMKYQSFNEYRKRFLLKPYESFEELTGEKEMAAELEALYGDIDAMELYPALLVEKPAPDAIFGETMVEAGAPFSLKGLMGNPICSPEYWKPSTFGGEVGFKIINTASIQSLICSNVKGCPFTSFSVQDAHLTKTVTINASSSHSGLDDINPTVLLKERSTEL

Cyclooxygenase-2 (COX-2) [2] = biological target: T1, Cyclooxygenase-2 (COX-2); test: purified enzyme turnover, RP-HPLC-MS/MS; format: biochemical

Row | Compound | purified enzyme, product formation and regioisomers by RP-HPLC-MS/MS (Cyclooxygenase-2 (COX-2) [1]) | purified enzyme turnover, RP-HPLC-MS/MS (Cyclooxygenase-2 (COX-2) [2])
1 | CC(=O)Oc1ccccc1C(=O)O [ASA] | ASA increased the rate and extent of formation of OH-DPA (Fig. 3c) and shifted the distribution of hydroxy regioisomers | –
2 | CC/C=C\C/C=C\C/C=C\C/C=C\C/C=C\CCCCCC(=O)O [DPA, (7Z,10Z,13Z,16Z,19Z)-docosapentaenoic acid] | – | purified ovine COX-2 generated the EFOX-D5 precursor, hydroxy-DPA (OH-DPA), from DPA
